Legend:
Conditions in all cases: 336 h, Table 3, post-emergence, 14±1 days post application
[1] = system: Amaranthus retroflexus (AMARE); assay: Post-emergence glasshouse test, visual injury, AMARE; type: in vivo
How it was run: (§1)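 Plants raised in sandy loam soil were sprayed post-emergence at BBCH 12-14 with compound formulated in acetone/water (50:50) containing 0.5% Tween 20, applied at set rates in g/ha. After 14±1 days in a controlled glasshouse, damage was scored visually as percent injury versus untreated plots.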

[2] = system: Lolium multiflorum (LOLMU); assay: Post-emergence glasshouse test, visual injury, LOLMU; type: in vivo
How it was run: as §1

[3] = system: Echinochloa crus-gaffi (ECHCG); assay: Post-emergence glasshouse test, visual injury, ECHCG; type: in vivo, Echinochloa crus-galli
How it was run: as §1

[4] = system: Veronica persica (VERPE); assay: Post-emergence glasshouse test, visual injury, VERPE; type: in vivo
How it was run: as §1

SMILES	pest or weed control at 500 g/ha [1] [%]	pest or weed control at 500 g/ha [2] [%]	pest or weed control at 500 g/ha [3] [%]	pest or weed control at 500 g/ha [4] [%]	other results
Cc1cc(-c2cnc(NC3CCCC3)nc2C(F)F)on1 [Compound 119]					pest or weed control at 125 g/ha [1]: 50%; pest or weed control at 125 g/ha [2]: 0%; pest or weed control at 125 g/ha [3]: 0%; pest or weed control at 125 g/ha [4]: 0%
Cc1cc(-c2cnc(N3CCC(O)CC3)nc2C2CC2)on1 [Compound 71]	90	0	60	40	
CCN1CCN(c2ncc(-c3cc(C)no3)c(C(C)C)n2)CC1 [Compound 63]	70	30	50	0	
COc1ccccc1CNc1ncc(-c2cc(C)no2)c(-c2ccc(C)o2)n1 [Compound 23]	70	0	50	80	
Cc1cc(-c2cnc(NCc3ccc4c(c3)OCO4)nc2C(C)(C)C)on1 [Compound 54]	40	5	40	99	
Cc1cccc(CNc2ncc(-c3cc(C)no3)c(C(C)C)n2)c1 [Compound 99]					pest or weed control at 62 g/ha ([1]; 62 g/ha): 60%; pest or weed control at 62 g/ha ([2]; 62 g/ha): 30%; pest or weed control at 62 g/ha ([3]; 62 g/ha): 70%; pest or weed control at 62 g/ha ([4]; 62 g/ha): 80%
Cc1cc(-c2cnc(N3CCSCC3)nc2-c2ccc(C)o2)on1 [Compound 90]					pest or weed control at 125 g/ha [1]: 30%; pest or weed control at 125 g/ha [2]: 0%; pest or weed control at 125 g/ha [3]: 30%; pest or weed control at 125 g/ha [4]: 40%
